In patent US20110112014A1 (priority 2008, published 2011):
Entries after “also recorded” stand apart in the source; their conditions may differ.

Key:
[1] = Blood glucose concentration after 2 l of beverage in overnight-fasted male subjects; assay type: in vivo, human; conditions: 8 fasting male subjects; 2 l consumed between -120 and -40 min; FIG. 2
Procedure: 2 l of each beverage were consumed between −120 and −40 min.
After an overnight fast, each subject consumed 2 l of one solution (between −120 min and −40 min in FIG. 1). All subjects had to ingest all types of solution, however in random order. Simultaneously, blood samples were taken and analyzed for plasma glucose and haemoglobin concentration as well as haematocrit. RER measurements confirmed that all subjects were in a fasting state.

[2] = cited from earlier work
[3] = Hydration effect of glycerol solutions by concentration; assay type: in vivo, human; conditions: also printed as 18 g/l
[4] = large doses; cited from earlier work

## OCC(O)CO [glycerol, propane-1,2,3-triol]
[1]
  Blood glucose concentration: does not increase blood glucose levels; also recorded: remained unaffected
[2]; compared with fasting control conditions without exogenous glycerol load
  Hepatic glucose production: does not increase hepatic glucose production
[2]; healthy fasting subjects, glycerol supplementation
  Plasma glucose concentrations: does not increase plasma glucose concentrations
[3]
  Concentration at which appreciable hydration effects are seen: above 0.2 mol/l
[4]
  Toxicity: non-toxic
